Values of other authors, collected in patent publication US20220395469A1, “TRANSDERMAL DRUG DELIVERY SYSTEM FOR KETAMINE” (GUANGZHOU DAZHOU BIOMEDICINE LTD., priority 2017, published 2022).

Experiments:
NMDA receptor = conditions: in vitro
[1] = not given; remark: listed apart in the source
[2] = three-compartment model, 70-kg human (Fanta et al.)

## CN[C@@]1(c2ccccc2Cl)CCCCC1=O [R-ketamine]
Yang et al.
  psychotomimetic side effects and abuse liability: free of psychotomimetic side effects and abuse liability
Animal model studies, versus S-ketamine (Yang et al.)
  antidepressant effectiveness: more effective as an antidepressant than S-ketamine

## CN[C@]1(c2ccccc2Cl)CCCCC1=O [S-ketamine]
NMDA receptor
  affinity on NMDA receptor binding relative to R-ketamine: ~4 fold

## CNC1(c2ccccc2Cl)CCCCC1=O (centres unmarked) [ketamine]
[1]; in humans
  absolute oral bioavailability: 10-20%
[1]; in vivo
  systemic (primarily hepatic) clearance: about 19 ml/min·kg
[1]; [2]
  V1: 133 L
  clearance: 79.8 L/h
  micro constant k12: 0.174 h⁻¹
  micro constant k13: 1.18 h⁻¹
  micro constant k21: 0.124 h⁻¹
  micro constant k31: 1.59 h⁻¹
